Measured values published in the NIST ThermoML archive (doi:10.1021/je200721d).
Numbers after ± are expanded uncertainties.

Assay: xn = mol fraction of the nth substance listed
Details: Liquid, Vibrating tube method

CCCCCCCCCC [decane] + CCCCCC
mass density (352.99 K, 19000 kPa, x2 = 0.7524): 655.43 ± 0.45 kg/m3 | mass density (352.99 K, 20000 kPa, x2 = 0.0456): 701.21 ± 0.41 kg/m3 | mass density (352.99 K, 20000 kPa, x2 = 0.7524): 656.5 ± 0.46 kg/m3 | mass density (352.99 K, 21000 kPa, x2 = 0.0456): 702.11 ± 0.42 kg/m3 | mass density (352.99 K, 21000 kPa, x2 = 0.7524): 657.54 ± 0.47 kg/m3 | mass density (352.99 K, 22000 kPa, x2 = 0.0456): 702.98 ± 0.42 kg/m3 | mass density (352.99 K, 22000 kPa, x2 = 0.7524): 658.56 ± 0.48 kg/m3 | mass density (352.99 K, 23000 kPa, x2 = 0.0456): 703.83 ± 0.43 kg/m3 | mass density (352.99 K, 23000 kPa, x2 = 0.7524): 659.55 ± 0.49 kg/m3 | mass density (352.99 K, 24000 kPa, x2 = 0.0456): 704.67 ± 0.44 kg/m3 | mass density (352.99 K, 24000 kPa, x2 = 0.7524): 660.56 ± 0.5 kg/m3 | mass density (352.99 K, 25000 kPa, x2 = 0.0456): 705.49 ± 0.45 kg/m3 | mass density (352.99 K, 25000 kPa, x2 = 0.7524): 661.49 ± 0.51 kg/m3 | mass density (353 K, 1000 kPa, x2 = 0.2185): 673.09 ± 0.26 kg/m3 | mass density (353 K, 2000 kPa, x2 = 0.2185): 674.25 ± 0.27 kg/m3 | mass density (353 K, 3000 kPa, x2 = 0.2185): 675.39 ± 0.28 kg/m3 | mass density (353 K, 4000 kPa, x2 = 0.2185): 676.51 ± 0.28 kg/m3 | mass density (353 K, 5000 kPa, x2 = 0.2185): 677.65 ± 0.29 kg/m3 | mass density (353 K, 6000 kPa, x2 = 0.2185): 678.75 ± 0.3 kg/m3 | mass density (353 K, 7000 kPa, x2 = 0.2185): 679.82 ± 0.31 kg/m3 | mass density (353 K, 8000 kPa, x2 = 0.2185): 680.92 ± 0.32 kg/m3 | mass density (353 K, 9000 kPa, x2 = 0.2185): 681.98 ± 0.32 kg/m3 | mass density (353 K, 10000 kPa, x2 = 0.2185): 683.03 ± 0.33 kg/m3 | mass density (353 K, 11000 kPa, x2 = 0.2185): 684.07 ± 0.34 kg/m3 | mass density (353 K, 12000 kPa, x2 = 0.2185): 685.08 ± 0.35 kg/m3 | mass density (353 K, 13000 kPa, x2 = 0.2185): 686.09 ± 0.36 kg/m3 | mass density (353 K, 14000 kPa, x2 = 0.2185): 687.09 ± 0.37 kg/m3 | mass density (353 K, 15000 kPa, x2 = 0.2185): 688.08 ± 0.37 kg/m3 | mass density (353 K, 16000 kPa, x2 = 0.2185): 689.03 ± 0.38 kg/m3 | mass density (353 K, 17000 kPa, x2 = 0.2185): 689.97 ± 0.39 kg/m3 | mass density (353 K, 18000 kPa, x2 = 0.2185): 690.9 ± 0.4 kg/m3 | mass density (353 K, 19000 kPa, x2 = 0.2185): 691.79 ± 0.41 kg/m3 | mass density (353 K, 20000 kPa, x2 = 0.2185): 692.7 ± 0.42 kg/m3 | mass density (353 K, 21000 kPa, x2 = 0.2185): 693.59 ± 0.43 kg/m3 | mass density (353 K, 22000 kPa, x2 = 0.2185): 694.47 ± 0.43 kg/m3 | mass density (353 K, 23000 kPa, x2 = 0.2185): 695.35 ± 0.44 kg/m3 | mass density (353 K, 24000 kPa, x2 = 0.2185): 696.22 ± 0.45 kg/m3 | mass density (353 K, 25000 kPa, x2 = 0.2185): 697.07 ± 0.46 kg/m3 | mass density (353.01 K, 1000 kPa, x2 = 0.4968): 654.56 ± 0.27 kg/m3 | mass density (353.01 K, 2000 kPa, x2 = 0.4968): 655.89 ± 0.28 kg/m3 | mass density (353.01 K, 3000 kPa, x2 = 0.4968): 657.2 ± 0.28 kg/m3 | mass density (353.01 K, 4000 kPa, x2 = 0.4968): 658.52 ± 0.29 kg/m3 | mass density (353.01 K, 5000 kPa, x2 = 0.4968): 659.83 ± 0.3 kg/m3 | mass density (353.01 K, 6000 kPa, x2 = 0.4968): 661.12 ± 0.31 kg/m3 | mass density (353.01 K, 7000 kPa, x2 = 0.4968): 662.3 ± 0.32 kg/m3 | mass density (353.01 K, 8000 kPa, x2 = 0.4968): 663.52 ± 0.33 kg/m3 | mass density (353.01 K, 9000 kPa, x2 = 0.4968): 664.66 ± 0.33 kg/m3 | mass density (353.01 K, 10000 kPa, x2 = 0.4968): 665.8 ± 0.34 kg/m3 | mass density (353.01 K, 11000 kPa, x2 = 0.4968): 666.94 ± 0.35 kg/m3 | mass density (353.01 K, 12000 kPa, x2 = 0.4968): 668.05 ± 0.36 kg/m3 | mass density (353.01 K, 13000 kPa, x2 = 0.4968): 669.13 ± 0.37 kg/m3 | mass density (353.01 K, 14000 kPa, x2 = 0.4968): 670.21 ± 0.38 kg/m3 | mass density (353.01 K, 15000 kPa, x2 = 0.4968): 671.26 ± 0.39 kg/m3 | mass density (353.01 K, 16000 kPa, x2 = 0.4968): 672.3 ± 0.4 kg/m3 | mass density (353.01 K, 17000 kPa, x2 = 0.4968): 673.3 ± 0.41 kg/m3 | mass density (353.01 K, 18000 kPa, x2 = 0.4968): 674.32 ± 0.42 kg/m3 | mass density (353.01 K, 19000 kPa, x2 = 0.4968): 675.27 ± 0.43 kg/m3 | mass density (353.01 K, 20000 kPa, x2 = 0.4968): 676.25 ± 0.43 kg/m3 | mass density (353.01 K, 21000 kPa, x2 = 0.4968): 677.22 ± 0.44 kg/m3 | mass density (353.01 K, 22000 kPa, x2 = 0.4968): 678.15 ± 0.45 kg/m3 | mass density (353.01 K, 23000 kPa, x2 = 0.4968): 679.08 ± 0.46 kg/m3 | mass density (353.01 K, 24000 kPa, x2 = 0.4968): 680 ± 0.47 kg/m3 | mass density (353.01 K, 25000 kPa, x2 = 0.4968): 680.91 ± 0.48 kg/m3 | mass density (362.59 K, 1000 kPa, x2 = 0.8991): 607.57 ± 0.28 kg/m3 | mass density (362.59 K, 2000 kPa, x2 = 0.8991): 609.29 ± 0.29 kg/m3 | mass density (362.59 K, 3000 kPa, x2 = 0.8991): 610.97 ± 0.3 kg/m3 | mass density (362.59 K, 4000 kPa, x2 = 0.8991): 612.62 ± 0.31 kg/m3 | mass density (362.59 K, 5000 kPa, x2 = 0.8991): 614.24 ± 0.32 kg/m3 | mass density (362.59 K, 6000 kPa, x2 = 0.8991): 615.83 ± 0.33 kg/m3 | mass density (362.59 K, 7000 kPa, x2 = 0.8991): 617.37 ± 0.34 kg/m3 | mass density (362.59 K, 8000 kPa, x2 = 0.8991): 618.92 ± 0.35 kg/m3 | mass density (362.59 K, 9000 kPa, x2 = 0.8991): 620.4 ± 0.4 kg/m3 | mass density (362.59 K, 10000 kPa, x2 = 0.8991): 621.89 ± 0.37 kg/m3 | mass density (362.59 K, 11000 kPa, x2 = 0.8991): 623.32 ± 0.38 kg/m3 | mass density (362.59 K, 12000 kPa, x2 = 0.8991): 624.72 ± 0.39 kg/m3 | mass density (362.59 K, 13000 kPa, x2 = 0.8991): 626.12 ± 0.4 kg/m3 | mass density (362.59 K, 14000 kPa, x2 = 0.8991): 627.49 ± 0.41 kg/m3 | mass density (362.59 K, 15000 kPa, x2 = 0.8991): 628.8 ± 0.4 kg/m3 | mass density (362.59 K, 16000 kPa, x2 = 0.8991): 630.11 ± 0.44 kg/m3 | mass density (362.59 K, 17000 kPa, x2 = 0.8991): 631.37 ± 0.45 kg/m3 | mass density (362.59 K, 18000 kPa, x2 = 0.8991): 632.62 ± 0.46 kg/m3 | mass density (362.59 K, 19000 kPa, x2 = 0.8991): 633.83 ± 0.47 kg/m3 | mass density (362.59 K, 20000 kPa, x2 = 0.8991): 635.04 ± 0.48 kg/m3 | mass density (362.59 K, 21000 kPa, x2 = 0.8991): 636.21 ± 0.49 kg/m3 | mass density (362.59 K, 22000 kPa, x2 = 0.8991): 637.35 ± 0.5 kg/m3 | mass density (362.59 K, 23000 kPa, x2 = 0.8991): 638.45 ± 0.51 kg/m3 | mass density (362.59 K, 24000 kPa, x2 = 0.8991): 639.52 ± 0.53 kg/m3 | mass density (362.59 K, 25000 kPa, x2 = 0.8991): 640.65 ± 0.54 kg/m3 | mass density (362.91 K, 1000 kPa, x2 = 0.0456): 674.5 ± 0.26 kg/m3 | mass density (362.91 K, 2000 kPa, x2 = 0.0456): 675.7 ± 0.27 kg/m3 | mass density (362.91 K, 3000 kPa, x2 = 0.0456): 676.88 ± 0.27 kg/m3 | mass density (362.91 K, 4000 kPa, x2 = 0.0456): 678.04 ± 0.28 kg/m3 | mass density (362.91 K, 5000 kPa, x2 = 0.0456): 679.18 ± 0.29 kg/m3 | mass density (362.91 K, 6000 kPa, x2 = 0.0456): 680.32 ± 0.3 kg/m3
